Laboratory results as given in patent US20210139517A1, “BICYCLIC HETEROARYL COMPOUNDS AND USES THEREOF” (Revolution Medicines, Inc., priority 2019, published 2021).

Tested on: SOS1 function in cells: cellular pERK in PC-9 cells (EGFR Ex19Del)
Assay: pERK potency assay in PC-9 cells (AlphaLISA SureFire Ultra p-ERK1/2)
Type: cell-based
Settings: 1 hour incubation
Protocol: The purpose of this assay is tomeasure the ability of test compounds to inhibit SOS1 function in cells. SOS1 activates RAS proteins by catalyzing the conversion of RAS-GDP to RAS-GTP in response to receptor tyrosine kinase activation. […] The procedure described below measures the level of cellular pERK in response to test compounds in PC-9 cells (EGFR Ex19Del).
PC-9 cells were grown and maintained using media and procedures recommended by the ATCC. On the day prior to compound addition, cells were plated in 384-well cell culture plates (40 μL/well) and grown overnight in a 37° C., 5% CO2 incubator. Test compounds were prepared in 10, 3-fold dilutions in DMSO, with a top concentration of 10 mM. On the day of the assay, 40 nL of test compound was added to each well of cell culture plate using an Echo550 liquid handler (LabCyte). Concentrations of test compound were tested in duplicate with highest test concentration being 10 μM. After compound addition, cells were incubated for 1 hour at 37° C., 5% CO2. Following incubation, culture medium was removed and cells were washed once with phosphate buffered saline.
Cellular pERK level was determined using the AlphaLISA SureFire Ultra p-ERK1/2 Assay Kit (PerkinElmer). Cells were lysed in 25 μL lysis buffer, with shaking at 600 RPM at room temperature for 15 minutes. Lysate (10 μL) was transferred to a 384-well Opti-plate (PerkinElmer) and 5 μL acceptor mix was added. The plate was centrifuged at 1000 RPM for 1 minute, and incubated in the dark for 2 hours. Following this incubation, 5 μL of donor mix was added, the plate was sealed and centrifuged at 1000 RPM for 1 minute, and the mixture was incubated for 2 hours at room temperature. Signal was read on an Envision plate reader (PerkinElmer) using standard AlphaLISA settings. Analysis of raw data was carried out in Excel (Microsoft) and Prism (GraphPad). Signal was plotted vs. the decadal logarithm of compound concentration, and IC50 was determined by fitting a 4-parameter sigmoidal concentration response model.

IC50	IC50 (Homo sapiens, PC-9, 1 h)	Structure (SMILES)
2240 nM	–	COC1(c2cc3c(N[C@H](C)c4cccc(C(F)F)c4F)ncnc3n(C)c2=O)CCN(C)CC1 [Example 32-3]
128 nM	–	COC1(c2cc3c(N[C@H](C)c4cccc(C(F)F)c4F)ncnc3n(C)c2=O)CCS(=O)(=O)C(C)C1 (stereo partly drawn) [Example 32-67]
67.6 nM	–	COC1(c2cc3c(N[C@H](C)c4cccc(C(F)F)c4F)ncnc3n(C)c2=O)CCCN(C(C)=O)C1 (stereo partly drawn) [Example 32-68]
77.8 nM	–	CO[C@@]1(c2cc3c(N[C@H](C)c4cccc(C(F)F)c4F)nc(C)nc3n(C)c2=O)CCN(C(C)=O)C1 [Example 32-69]
350 nM	–	CC(=O)N1CCC(OC2CC2)(c2cc3c(N[C@H](C)c4cccc(C(F)F)c4F)ncnc3n(C)c2=O)C1 (stereo partly drawn) [Example 32-70]
41.8 nM	–	CC(=O)N1CCC(OC2CC2)(c2cc3c(N[C@H](C)c4cccc(C(F)F)c4F)ncnc3n(C)c2=O)C1 (stereo partly drawn) [Example 32-71]
127 nM	–	COC1(c2cc3c(N[C@H](C)c4cccc(C(F)F)c4F)ncnc3n(C)c2=O)CCC2(CC1)COC2 [Example 32-72]
57.1 nM	–	COC1(c2cc3c(N[C@H](C)c4cccc(C(F)F)c4F)ncnc3n(C)c2=O)CCS(=O)(=O)C1 (stereo partly drawn) [Example 32-73]
201 nM	–	COC1(c2cc3c(N[C@H](C)c4cccc(C(F)F)c4F)ncnc3n(C)c2=O)CCS(=O)(=O)C1 (stereo partly drawn) [Example 32-74]
17.5 nM	–	COC1(c2cc3c(N[C@H](C)c4cccc5c4OCC5(F)F)ncnc3n(C)c2=O)CCN(C(C)=O)CC1 [Example 32-76]
47.7 nM	–	COC1(c2cc3c(N[C@H](C)c4cccc5c4OCC5(F)F)ncnc3n(C)c2=O)CCS(=O)(=O)CC1 [Example 32-77]
49.3 nM	–	COC1(c2cc3c(N[C@H](C)c4cccc(C(F)F)c4F)ncnc3n(C)c2=O)CCC2(CC1)CN(C(C)=O)C2 [Example 32-78]
154 nM	–	COC1(c2cc3c(N[C@H](C)c4cccc(C(F)F)c4F)ncnc3n(C)c2=O)CC2(COC2)C1 [Example 32-80]
321 nM	–	COC1(c2cc3c(N[C@H](C)c4cccc(C(F)F)c4F)ncnc3n(C)c2=O)CCC2(CC1)CS(=O)(=NC1CC1)C2 (stereo partly drawn) [Example 32-83]

The next lines start with the compound.

Structure (SMILES)	IC50	IC50 (Homo sapiens, PC-9, 1 h)
CC(=O)N1CCC(c2cc3c(N[C@H](C)c4cccc(C(F)F)c4F)ncnc3n(C)c2=O)CC1 [Example 8-3]	145 nM	–
C[C@@H](Nc1ncnc2c1cc(C1CCN(CCF)CC1)c(=O)n2C)c1cccc(C(F)F)c1F [Example 8-4]	229 nM	–
C[C@@H](Nc1ncnc2c1cc(C1CCS(=O)(=O)CC1)c(=O)n2C)c1cccc(C(F)F)c1F [Example 8-5]	33.5 nM	–
CC(=O)N1CCC(c2cc3c(N[C@H](C)c4cccc5c4CCC5(F)F)ncnc3n(C)c2=O)CC1 [Example 8-6]	34.4 nM	–
CCc1c(C(F)F)cccc1[C@@H](C)Nc1ncnc2c1cc(C1CCN(C(C)=O)CC1)c(=O)n2C [Example 8-7]	351 nM	–
C[C@@H](Nc1ncnc2c1cc(C1CCN(C3COC3)CC1)c(=O)n2C)c1cccc(C(F)F)c1F [Example 8-8]	389 nM	–
CC(=O)N1CCC(c2cc3c(N[C@H](C)c4cccc(C(F)F)c4F)nc(C)nc3n(C)c2=O)CC1 [Example 8-9]	86.8 nM	–
C[C@@H](Nc1ncnc2c1cc(C1CCN(C(=O)CO)CC1)c(=O)n2C)c1cccc(C(F)F)c1F [Example 8-10]	61.5 nM	–
Cc1c([C@@H](C)Nc2ncnc3c2cc(C2CCS(=O)(=O)CC2)c(=O)n3C)cccc1C(F)(F)F [Example 8-11]	45.1 nM	–
Cc1nc(N[C@H](C)c2cccc(C(F)F)c2F)c2cc(C3CCS(=O)(=O)CC3)c(=O)n(C)c2n1 [Example 8-12]	138 nM	–
C[C@@H](Nc1ncnc2c1cc(C1CCN(CC(F)F)CC1)c(=O)n2C)c1cccc(C(F)F)c1F [Example 8-13]	364 nM	–
Cc1nc(N[C@H](C)c2cccc(C(F)F)c2F)c2cc(C3CCN(C4COC4)CC3)c(=O)n(C)c2n1 [Example 8-14]	420 nM	–
C[C@@H](Nc1ncnc2c1cc(C1CCN(S(C)(=O)=O)CC1)c(=O)n2C)c1cccc(C(F)F)c1F [Example 8-15]	394 nM	–
C[C@@H](Nc1ncnc2c1cc(C1CCN(CC(F)(F)F)CC1)c(=O)n2C)c1cccc(C(F)F)c1F [Example 8-16]	917 nM	–
Cc1nc(N[C@H](C)c2cccc(C(F)F)c2F)c2cc(C3CCN(CC(F)(F)F)CC3)c(=O)n(C)c2n1 [Example 8-17]	542 nM	–
Cc1nc(N[C@H](C)c2cccc(C(F)F)c2F)c2cc(C3=CCCOC3)c(=O)n(CCO)c2n1 [Example 11-1]	345 nM	–
C[C@@H](Nc1ncnc2c1cc(C1=CCS(=O)(=O)CC1)c(=O)n2CC#N)c1cccc(C(F)F)c1F [Example 11-3]	80.7 nM	–

Structure (SMILES)	IC50	IC50 (Homo sapiens, PC-9, 1 h)
COC1(c2cc3c(N[C@H](C)c4cccc(C(F)F)c4F)ncnc3n(C3CC3)c2=O)CCN(C(C)=O)CC1 [Example 11-4]	32.2 nM	–
Cc1nc(N[C@H](C)c2cccc(C(F)F)c2F)c2cc(C3COC3)c(=O)n(C)c2n1 [Example 16, 4-[[(1R)-1-[3-(difluoromethyl)-2-fluoro-phenyl]ethyl]amino]-2,8-dimethyl-6-(oxetan-3-yl)pyrido[2,3-d]pyrimidin-7-one]	–	346 nM
CC(=O)N1CCC(c2cc3c(N[C@H](C)c4cc(N)cc(C(F)(F)F)n4)ncnc3n(C)c2=O)CC1 [Example 17, 6-(1-acetyl-4-piperidyl)-4-[[(1R)-1-[4-amino-6-(trifluoromethyl)-2-pyridyl]ethyl]amino]-8-methyl-pyrido[2,3-d]pyrimidin-7-one]	–	377 nM
COc1ccc(Cc2cc3c(N[C@H](C)c4cccc(C(F)F)c4F)nc(C)nc3n(C)c2=O)cc1OC [Example 20-1]	6600 nM	–
C[C@@H](Nc1ncnc2c1cc(Cc1ccccc1)c(=O)n2C)c1cccc(C(F)F)c1F [Example 20-2]	2550 nM	–
C[C@@H](Nc1ncnc2c1cc(Cc1ccccc1)c(=O)n2C)c1cccc(C(F)(F)F)c1 [Example 20-3]	2640 nM	–
COc1cccc(Cc2cc3c(N[C@H](C)c4cccc(C(F)F)c4F)nc(C)nc3n(C)c2=O)c1OC [Example 20]	3950 nM	–
C[C@@H](Nc1ncnc2c1cc(-c1ccc[nH]1)c(=O)n2C)c1cccc(C(F)F)c1F [Example 21-1]	1160 nM	–
C[C@@H](Nc1ncnc2c1cc(-c1cncnc1)c(=O)n2C)c1cccc(C(F)F)c1F [Example 21-2]	247 nM	–
Cc1nc(N[C@H](C)c2cccc(C(F)F)c2F)c2cc(-c3ccnnc3)c(=O)n(C)c2n1 [Example 21-3]	188 nM	–
Cc1nc(N[C@H](C)c2cccc(C(F)F)c2F)c2cc(-c3cncnc3)c(=O)n(C)c2n1 [Example 21-4]	365 nM	–
C[C@@H](Nc1ncnc2c1cc(-c1cnc(F)nc1)c(=O)n2C)c1cccc(C(F)F)c1F [Example 21-5]	1200 nM	–
COc1ncccc1-c1cc2c(N[C@H](C)c3cccc(C(F)F)c3F)ncnc2n(C)c1=O [Example 21-7]	150 nM	–
C[C@@H](Nc1ncnc2c1cc(-c1ccc3nonc3c1)c(=O)n2C)c1cccc(C(F)F)c1F [Example 21-8]	334 nM	–
C[C@@H](Nc1ncnc2c1cc(C1(O)CCN(C)CC1)c(=O)n2C)c1cccc(C(F)F)c1F [Example 28-1]	187 nM	–
Cc1nc(N[C@H](C)c2cccc(C(F)F)c2F)c2cc(C3(O)CCN(C)CC3)c(=O)n(C)c2n1 [Example 28-2]	572 nM	–
C[C@@H](Nc1ncnc2c1cc(C1(N)CCC3(CC1)CS(=O)(=O)C3)c(=O)n2C)c1cccc(C(F)F)c1F [Example 31-5]	26.7 nM	–
